In patent publication US20180201647A1, “Peptoid” (The University of Durham, priority 2015, published 2018):
pIC50: −log10 of the molar value. Like-named read-outs stand apart in the source and are kept apart here. Values belong to the molecule of their own block, whether it stands above or below them. *1 amine or outer side, *2 acyl side, *3 side chain or, on linkers, in order; H or OH if unused. Where a SMILES comes first, the peptide text is derived from it. [ ]: non-standard residue; d: D form. Gly(N-2-aminoethyl) = NCCNCC(=O)O; X1 = N=C(N)NCCN(CC(=O)[*:2])[*:1]; Nspe = C[C@H](NCC(=O)O)c1ccccc1; NhArg = N=C(N)NCCCCNCC(=O)O; Nlys = NCCCCNCC(=O)O

Key:
Type in all cases: cell-based
[1] = system: Trypanosoma brucei rhodesiense STIB900
Protocol: This stock was isolated in 1982 from a human patient in Tanzania and after several mouse passages cloned and adapted to axenic culture conditions. Minimum Essential Medium (50 μl) supplemented with 25 mM HEPES, 1 g/l additional glucose, 1% MEM non-essential amino acids (100×), 0.2 mM 2-mercaptoethanol, 1 mM Na-pyruvate and 15% heat inactivated horse serum was added to each well of a 96-well microtiter plate. Serial drug dilutions of eleven 3-fold dilution steps covering a range from 100 to 0.002 μg/ml were prepared. Then 4×10^3 bloodstream forms of T. b. rhodesiense STIB 900 in 50 μl was added to each well and the plate incubated at 37° C. under a 5% CO2 atmosphere for 70 h. 10 μl Alamar Blue (resazurin, 12.5 mg in 100 ml double-distilled water) was then added to each well and incubation continued for a further 2-4 h. Then the plates were read with a Spectramax Gemini XS microplate fluorometer (Molecular Devices Cooperation, Sunnyvale, Calif., USA) using an excitation wave length of 536 nm and an emission wave length of 588 nm. The IC50 values were calculated by linear regression from the sigmoidal dose inhibition curves using SoftmaxPro software (Molecular Devices Cooperation, Sunnyvale, Calif., USA). Melarsoprol (Arsobal Sanofi-Aventis, received from WHO) is used as control.

[2] = system: T. cruzi Tulahuen strain C2C4; experiment: microbe, parasite or virus in culture
Protocol: Rat skeletal myoblasts (L-6 cells) were seeded in 96-well microtitre plates at 2000 cells/well in 100 μL RPMI 1640 medium with 10% FBS and 2 mM 1-glutamine. After 24 h the medium was removed and replaced by 100 μl per well containing 5000 trypomastigote forms of T. cruzi Tulahuen strain C2C4 containing the β-galactosidase (Lac Z) gene. After 48 h the medium was removed from the wells and replaced by 100 μl fresh medium with or without a serial drug dilution of eleven 3-fold dilution steps covering a range from 100 to 0.002 μg/ml. After 96 h of incubation the plates were inspected under an inverted microscope to assure growth of the controls and sterility. Then the substrate CPRG/Nonidet (50 μl) was added to all wells. A color reaction developed within 2-6 h and could be read photometrically at 540 nm. Data were analyzed with the graphic programme Softmax Pro (Molecular Devices), which calculated IC50 values by linear regression from the sigmoidal dose inhibition curves. Benznidazole is used as control (IC50 0.5+0.2 μg/ml).

[3] = system: L. donovani strain MHOM/ET/67/L82 axenic amastigotes
Protocol: Amastigotes of L. donovani strain MHOM/ET/67/L82 were grown in axenic culture at 37° C. in SM medium^24 at pH 5.4 supplemented with 10% heat-inactivated fetal bovine serum under an atmosphere of 5% CO2 in air. One hundred microlitres of culture medium with 10^5 amastigotes from axenic culture with or without a serial drug dilution were seeded in 96-well microtitre plates. Serial drug dilutions of eleven 3-fold dilution steps covering a range from 90 to 0.002 μg/ml were prepared. After 70 h of incubation the plates were inspected under an inverted microscope to assure growth of the controls and sterile conditions. 10 μl of Alamar Blue (12.5 mg resazurin dissolved in 100 ml distilled water) were then added to each well and the plates incubated for another 2 h. Then the plates were read with a Spectramax Gemini XS microplate fluorometer (Molecular Devices Cooperation, Sunnyvale, Calif., USA) using an excitation wave length of 536 nm and an emission wave length of 588 nm. Data were analyzed using the software Softmax Pro (Molecular Devices Cooperation, Sunnyvale, Calif., USA). Decrease of fluorescence (=inhibition) was expressed as percentage of the fluorescence of control cultures and plotted against the drug concentrations. From the sigmoidal inhibition curves the IC50 values were calculated.

[4] = system: erythrocytic stages of P. falciparum
Protocol: In vitro activity against erythrocytic stages of P. falciparum was determined using a 3H-hypoxanthine incorporation assay using the drug sensitive NF54 strain (Schipol airport) or the chloroquine and pyrimethamine resistant K1 strain that originate from Thailand and the standard drug chloroquine (Sigma C6628). Compounds were dissolved in DMSO at 10 mg/ml and added to parasite cultures incubated in RPMI 1640 medium without hypoxanthine, supplemented with HEPES (5.94 g/l), NaHCO3 (2.1 g/1), neomycin (100 U/ml), Albumax® (5 g/l) and washed human red cells A^+ at 2.5% haematocrit (0.3% parasitaemia). Serial drug dilutions of eleven 3-fold dilution steps covering a range from 100 to 0.002 μg/ml were prepared. The 96-well plates were incubated in a humidified atmosphere at 37° C.; 4% CO2, 3% O2, 93% N2. After 48 h 50 μl of 3H-hypoxanthine (=0.5 μCi) was added to each well of the plate. The plates were incubated for a further 24 h under the same conditions. The plates were then harvested with a Betaplate™ cell harvester (Wallac, Zurich, Switzerland), and the red blood cells transferred onto a glass fibre filter then washed with distilled water. The dried filters were inserted into a plastic foil with 10 ml of scintillation fluid, and counted in a Betaplate™ liquid scintillation counter (Wallac, Zurich, Switzerland). IC50 values were calculated from sigmoidal inhibition curves by linear regression using Microsoft Excel. Chloroquine and artemisinin are used as control.

[5] = system: Escherichia coli K12 W3110
Protocol: (§1) Species used in MIC assays included gram-negative Escherichia coli K12 W3110, Pseudomonas aeruginosa laboratory strain PAO2 and Serratia marcescens laboratory strain and gram-positive Staphylococcus aureus NCTC 6571 and Micrococcus luteus laboratory strain.
(§2) Bacterial cultures were prepared by streaking the bacterial strains on to agar plates with an inoculation loop and incubating overnight at 37° C. A single colony was then selected and placed in 5 mL of Iso-Sensitest broth using an inoculation loop and incubated at 37° C. with shaking overnight.
(§3) MIC values were attained according to the protocol described by J. M. Andrews et al. [J. M. Andrews, J. Antimicrob. Chemother., 2001, 48, 5-16] and were conducted in 96-well microtitre plates in triplicate. 10-50 μL of each overnight culture was inoculated into 1.2 mL of Iso-Sensitest broth and grown at 37° C. with shaking. […] The inoculum was diluted ten-fold with Iso-Sensitest broth before use (to ˜10^3 cfu/spot). Peptide solutions were initially dissolved in DMSO (5 mg mL^−1) and then diluted further with Iso-Sensitest broth to achieve a concentration range of 4 mgL^−1 to 512 mgL^−1 using 2-fold serial dilutions. Samples were vortexed between dilutions where necessary to aid dissolution. 50 μL of inoculum and 50 μL of peptide solution were added to each test well to achieve a final concentration range of 2 mgL^−1 to 256 mgL^−1. Separate dilutions of ampicillin and DMSO were made up in a similar manner to act as a positive antibacterial control and a +DMSO control, respectively. 50 μL of inoculum and 50 μL of Iso-Sensitest broth were used as a positive control and 100 μL of inoculum was used as a negative control. Positive and negatives controls were conducted multiple times in parallel per plate. […] Quantitative data were attained as A650nm values using a BioTek® Synergy™ H4 Hybrid Multi-Mode Microplate Reader.

[6] = system: Pseudomonas aeruginosa laboratory strain PAO2
Protocol: as §1, §2, §3

[7] = system: Serratia marcescens laboratory strain; details: 16 h
Protocol: as §1, §2, §3

[8] = system: Staphylococcus aureus NCTC 6571
Protocol: as §1, §2, §3

[9] = system: S. aureus (NCTC 6571) biofilm; experiment: Single species biofilm treatment, crystal violet assay; details: 100 μM peptoid, 24 hours, FIG. 17B
Protocol: C. albicans (NCTC 3179) was subcultured aerobically on Sabouraud agar plates and propagated in yeast peptone dextrose broth. E. coli (ATCC 29522) and S. aureus (NCTC 6571) were grown on blood agar plates and propagated in brain heart infusion (BHI) broth.
Overnight cultures of C. albicans were washed and resuspended in a modified RPMI-1640 (Sigma-Aldrich, St Louis, USA) medium to yield an inoculum of 1.0×10^6 cells/ml. Overnight cultures of S. aureus or E. coli were washed and resuspended in brain heart infusion broth (Oxoid, Basingstoke, UK) to yield an inoculum of 5.0×10^6 cells/ml. A total volume of 100 μl of each inoculum was added to microtitre plate wells (Thermo Fisher Scientific, Roskilde, Denmark). An initial biofilm was allowed to form for 4 hours. Wells were washed three times with 200 μl PBS to facilitate removal of planktonic cells and the biofilms were then treated with 100 μM of peptoids 1-4 in the appropriate broth. Plates were incubated for a further 24 hours to allow biofilm maturation. After removal of planktonic cells by washing, biofilms were quantified by the crystal violet assay or by PMA-qPCR.
Biofilm quantification by crystal violet assay Washed biofilms were fixed with 100 μl methanol for 10 minutes. Following removal of methanol, the wells were air dried and stained with crystal violet solution (Clin-Tech Ltd, Guildford, UK) for 20 minutes at room temperature. Excess stain was removed by washing, the plate was then air dried and bound crystal violet was re-solubilised in 16 μl 33% acetic acid prior to reading at 570 nm in a microtitre plate reader (Tecan GENios, Ziirich, Switzerland).

[10] = second figure of cell, 37° C., 16 h, Iso-Sensitest broth

SMILES: C[C@@H](c1ccccc1)N(CC(N)=O)C(=O)CN(C(=O)CN(CCN)C(=O)CN(C(=O)CN(C(=O)CN(CCNC(=N)N)C(=O)CN(C(=O)CN(C(=O)CN(CCN)C(=O)CN(C(=O)CN(C(=O)CNCCNC(=N)N)[C@@H](C)c1ccccc1)[C@@H](C)c1ccccc1)[C@@H](C)c1ccccc1)[C@@H](C)c1ccccc1)[C@@H](C)c1ccccc1)[C@@H](C)c1ccccc1)[C@@H](C)c1ccccc1 [Peptoid 6, [(NnArgNspeNspe)(NaeNspeNspe)]2] (H-[X1][Nspe][Nspe][Gly(N-2-aminoethyl)][Nspe][Nspe][X1][Nspe][Nspe][Gly(N-2-aminoethyl)][Nspe][Nspe]-NH2; N-terminus assumed)
pIC50 ([1]; 70 h): 5.19
active against T. brucei rhodesiense ([1]; statement in words): active
pIC50 ([2]; in L-6 cells, 96 h, read-out: IC50 T. cruzi): 5.18
active against T. cruzi ([2]; statement in words): active
active against L. donovani ([3]; statement in words): active
pIC50 ([3]; strain MHOM/ET/67/L82 axenic amastigotes, 70 h): 5.02
active against P. falciparum ([4]; statement in words): active
pIC50 ([4]; strain (NF54 or K1) not given): 6.00

SMILES: O=C(Cn1ccnc1[N+](=O)[O-])NCc1ccccc1 [Benznidazole, reference compound]
IC50 ([2]; Trypanosoma cruzi, TULAHUEN, L6, control drug, in L-6 cells, 96 h, read-out: IC50 T. cruzi, control): 0.5 mg/L

MIC E. coli ([5]; K12, 16 h): 17 µM
MIC E. coli [5, 10]: 32 mgL^−1
MIC P. aeruginosa ([6]; laboratory strain PAO2, 16 h): 17 µM
MIC P. aeruginosa [6, 10]: 32 mgL^−1
MIC S. marcescens ([7]; laboratory strain): 134 µM
MIC S. marcescens ([7]; second figure of cell, 37° C., Iso-Sensitest broth): 256 mgL^−1
MIC S. aureus ([8]; NCTC 6571, 16 h): 17 µM
MIC S. aureus [8, 10]: 32 mgL^−1
SMILES: C[C@@H](c1ccccc1)N(CC(N)=O)C(=O)CN(C(=O)CN(CCCCN)C(=O)CN(C(=O)CN(C(=O)CN(CCCCN)C(=O)CN(C(=O)CN(C(=O)CN(CCCCNC(=N)N)C(=O)CN(C(=O)CN(C(=O)CNCCCCN)[C@@H](C)c1ccccc1)[C@@H](C)c1ccccc1)[C@@H](C)c1ccccc1)[C@@H](C)c1ccccc1)[C@@H](C)c1ccccc1)[C@@H](C)c1ccccc1)[C@@H](C)c1ccccc1 [Peptoid 3, (NLys-Nspe-Nspe)(NhArg-Nspe-Nspe)(NLys-Nspe-Nspe)2] (H-[Nlys][Nspe][Nspe][NhArg][Nspe][Nspe][Nlys][Nspe][Nspe][Nlys][Nspe][Nspe]-NH2; N-terminus assumed)
activity against the S. aureus biofilm [9]: strongest anti-bacterial activity
